Reference: patent US20070099877A1, “N-aryl-thienopyrimidin-4-amines and analogs as activators of caspases and inducers of apoptosis and the use thereof” (Cytovia, Inc., priority 2005, published 2007)
Where a name gives a salt, the structure may show the parent alone. Read-outs that look alike come from different tables or passages of the source.

Assays:
Type in all cases: cell-based
[1] = test system: human breast cancer cell line MDAMB435; experiment: Inhibition of cell proliferation (GI50) in MDAMB435 cells; conditions: MDA-MB-435, Table III, 48 h, read-out: GI50 in Cancer Cells MDAMB435
Experimental: (§1) Human breast cancer cell lines T-47D, MX-1 and MDAMB435, human colon cancer cell line HT29, and human lung cancer cell line H1299 were grown and harvested as in Example 75. An aliquot of […] of cells (4.4×10^4 cells/mL) was added to a well of a 96-well microtiter plate containing 5 μL of a 10% DMSO in RPMI-1640 media solution containing 10 nM to 100 μM of N-(2,5-dimethoxyphenyl)-2-methylthieno[3,2-d]pyrimidin-4-amine (1 nM to 10 μM final). An aliquot of 45 μL of cells was added to a well of a 96-well microtiter plate containing 5 μL of a 10% DMSO in RPMI-1640 media solution without compound as the control sample for maximal cell proliferation (Lmax). The samples were mixed by agitation and then incubated at 37° C. for 48 h in a 5% CO2-95% humidity incubator. After incubation, the samples were removed from the incubator and 25 μL of CellTiter-Glo™ reagent (Promega) was added. The samples were mixed by agitation and incubated at room temperature for 10-15 min. Plates were then read using a luminescent plate reader (Model SPECTRAfluor Plus, Tecan) to give Ltest values.
(§2) Baseline for GI50 (dose for 50% inhibition of cell proliferation) of initial cell numbers was determined by adding an aliquot of 45 μL of cells or 45 μL of media, respectively, to wells of a 96-well microtiter plate containing 5 μL of a 10% DMSO in RPMI-1640 media solution. The samples were mixed by agitation and then incubated at 37° C. for 0.5 h in a 5% CO2-95% humidity incubator. After incubation, the samples were removed from the incubator and 25 μL of CellTiter-Glo™ reagent (Promega) was added. The samples were mixed by agitation and incubated at 37° C. for 10-15 min at room temperature in a 5% CO2-95% humidity incubator. Fluorescence was read as above, (LStart) defining luminescence for initial cell number used as baseline in GI50 determinations.
(§3) GI50 (dose for 50% inhibition of cell proliferation) is the concentration where [(LTest−Lstart)/(LMax−Lstart)]=0.5.

[2] = test system: human hepatocellular carcinoma cell line SNU398; experiment: Caspase cascade activation in SNU398 cells; conditions: read-out: Caspase activation Potency EC50 SNU398 (48 h)
Procedure, shortened: (§4)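 Cells were exposed to compound at 0.016 to 10 μM final for 24 h or 48 h at 37 °C. They were then lysed with 14 μM N-(Ac-DEVD)-N′-ethoxycarbonyl-R110 in lysolecithin/DTT/PIPES buffer pH 7.2 for 3 h at room temperature (ex 485/em 530 nm). EC50 came from a sigmoidal fit of net RFU relative to untreated control.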

[3] = test system: human breast cancer cell line T-47D; experiment: Inhibition of cell proliferation (GI50, CellTiter-Glo) in T-47D cells; conditions: Table III, T47D cells, 48 h, read-out: GI50 in Cancer Cells T47D
Experimental: as §1, §2, §3

[4] = test system: human lung cancer cell line H1299; experiment: Caspase cascade activation in H1299 cells; conditions: NCI-H1299, 24 h, read-out: Caspase activation Potency EC50 H1299 (24 h)
Procedure, shortened: as §4

[5] = test system: human breast cancer cell line MX-1; experiment: Inhibition of cell proliferation (GI50) in MX-1 cells; conditions: Table III, MX1 cells, 48 h, read-out: GI50 in Cancer Cells MX1
Experimental: as §1, §2, §3

[6] = test system: human colon cancer cell line HT29; experiment: Inhibition of cell proliferation (GI50) in HT29 cells; conditions: HT-29, Table III, 48 h
Experimental: as §1, §2, §3

[7] = test system: human colon carcinoma cell line HCT116; experiment: Caspase cascade activation in HCT116 cells; conditions: read-out: Caspase activation Potency EC50 HCT116 (48 h)
Procedure, shortened: as §4

[8] = test system: human lung cancer cell line H1299; experiment: Inhibition of cell proliferation (GI50) in H1299 cells; conditions: NCI-H1299, Table III, 48 h
Experimental: as §1, §2, §3

[9] = test system: human breast cancer cell line T-47D; experiment: Caspase cascade activation (DEVD-R110 fluorogenic substrate) in T-47D cells
Procedure, shortened: as §4

[10] = test system: breast cancer cell line SKBR3; experiment: Caspase cascade activation in SKBR3 cells; conditions: Homo sapiens, SK-BR-3, 48 h, read-out: Caspase Activation Potency EC50 SKBR3
[11] = test system: human Burkitt's lymphoma cell line Namalwa; experiment: Caspase cascade activation in Namalwa cells; conditions: Burkitts lymphoma cell, 48 h, read-out: Caspase Activation Potency EC50 Namalwa
[12] = test system: human B cell lymphoblastoid cell line Ramos; experiment: Caspase cascade activation in Ramos cells; conditions: 48 h, read-out: Caspase Activation Potency EC50 Ramos
[13] = test system: human lymphoma cell line Raji; experiment: Caspase cascade activation in Raji cells; conditions: 48 h, read-out: Caspase Activation Potency EC50 Raji
[14] = Homo sapiens, T47D, 24 h, T47D cells, 24 h, read-out: Caspase activation Potency EC50 T47D (24 h)
[15] = Homo sapiens, T47D, 48 h, T-47D cells, 48 h, read-out: Caspase activation Potency EC50 T-47D (48 h)

| GI50 [1] [µM] | EC50 ([2]; Homo sapiens, SNU-398, 48 h) [µM] | GI50 [3] [nM] | EC50 [4] [µM] | GI50 [5] [nM] | GI50 [6] [µM] | EC50 ([7]; Homo sapiens, HCT-116, 48 h) [µM] | GI50 [8] [µM] | EC50 [9, 14] [nM] | EC50 [9, 15] [nM] | EC50 ([2]; 48 h, hydrochloride) [µM] | EC50 [10] [nM] | EC50 [11] [nM] | EC50 ([7]; 48 h, hydrochloride) [µM] | EC50 [12] [nM] | EC50 [13] [nM] | EC50 ([9]; T-47D cells, 48 h, hydrochloride, read-out: Caspase activation Potency EC50 T-47D (48 h)) [nM] | SMILES |
| --- | --- | --- | --- | --- | --- | --- | --- | --- | --- | --- | --- | --- | --- | --- | --- | --- | --- |
| > 10 | > 10 | 200 | > 10 | 300 | > 10 | > 10 | > 10 | 147 | 296 | – | – | – | – | – | – | – | COc1ccc(OC)c(Nc2ncnc3sccc23)c1 [Example 5, N-(2,5-Dimethoxyphenyl)thieno[2,3-d]pyrimidin-4-amine hydrochloride] |
| > 10 | > 10 | > 10000 | > 10 | > 10000 | > 10 | > 10 | > 10 | > 10000 | > 10000 | – | – | – | – | – | – | – | COc1ccc(OC)c(Nc2ncnc3scc(C)c23)c1 [Example 6, N-(2,5-Dimethoxyphenyl)-5-methylthieno[2,3-d]pyrimidin-4-amine hydrochloride] |
| – | – | – | – | – | – | – | – | – | – | 0.238 | 153 | 204 | 0.433 | 173 | 399 | 241 | COc1cc(Nc2ncnc3ccsc23)cc(N(C)C)c1 [Example 70, N-(3-Dimethylamino-5-methoxyphenyl)thieno[3,2-d]pyrimidin-4-amine hydrochloride] |
